{
  "source": "the supplement of paper PMC10307832",
  "assay_in_all_cases": "relative viability (nuclei count vs DMSO), 5 days (fraction); higher = more cells survive",
  "key": {"AZ3146 + Crizotinib": {"compound": "CN1CCC(CC1)OC2=CC(=C(C=C2)NC3=NC=C4C(=N3)N(C(=O)N4C)C5CCCC5)OC [AZ3146] + C[C@@H](Oc1cc(-c2cnn(C3CCNCC3)c2)cnc1N)c1c(Cl)ccc(F)c1Cl [Crizotinib] (partner 1 µM)", "method_in_brief": "(§1)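 Relative viability divides the nuclei count in treated wells by that in vehicle wells. Lung cancer cell lines were seeded in 1536-well plates, dosed by pin tool the next day, and fixed and stained after 5 days in one step with final 0.05% Triton X-100, 1% formaldehyde and 1 ug/ml Hoechst. Dosing was a single drug or a fixed anchor-drug dose plus five library-drug doses (not always all listed) in √10 steps, and values are medians of duplicate plates imaged at 4×.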"}, "AZ3146 + Olaparib": {"compound": "CN1CCC(CC1)OC2=CC(=C(C=C2)NC3=NC=C4C(=N3)N(C(=O)N4C)C5CCCC5)OC [AZ3146] + O=C(c1cc(Cc2n[nH]c(=O)c3ccccc23)ccc1F)N1CCN(C(=O)C2CC2)CC1 [Olaparib] (partner 8 µM)", "method_in_brief": "as §1"}, "AZ3146 + Pemetrexed": {"compound": "CN1CCC(CC1)OC2=CC(=C(C=C2)NC3=NC=C4C(=N3)N(C(=O)N4C)C5CCCC5)OC [AZ3146] + Nc1nc2[nH]cc(CCc3ccc(C(=O)N[C@@H](CCC(=O)O)C(=O)O)cc3)c2c(=O)[nH]1 [Pemetrexed] (partner 0.2 µM)", "method_in_brief": "as §1"}, "GSK-J4 + Linsitinib": {"compound": "CCOC(=O)CCNc1cc(N2CCc3ccccc3CC2)nc(-c2ccccn2)n1 [GSK-J4] + C[C@]1(O)C[C@@H](c2nc(-c3ccc4ccc(-c5ccccc5)nc4c3)c3c(N)nccn32)C1 [Linsitinib] (partner 1 µM)", "method_in_brief": "as §1"}},
  "data": [
    {"cell line": "NCI-H1993", "values": [
      {"measurement": "relative viability", "setting": "AZ3146 + Crizotinib; first compound 0.08 µM", "result": 0.876},
      {"measurement": "relative viability", "setting": "AZ3146 + Crizotinib; first compound 0.253 µM", "result": 0.847},
      {"measurement": "relative viability", "setting": "AZ3146 + Crizotinib; first compound 0.8 µM", "result": 0.813},
      {"measurement": "relative viability", "setting": "AZ3146 + Crizotinib; first compound 2.53 µM", "result": 0.879},
      {"measurement": "relative viability", "setting": "AZ3146 + Crizotinib; first compound 8 µM", "result": 0.84},
      {"measurement": "relative viability", "setting": "AZ3146 + Olaparib; first compound 0.08 µM", "result": 1},
      {"measurement": "relative viability", "setting": "AZ3146 + Olaparib; first compound 0.253 µM", "result": 1.12},
      {"measurement": "relative viability", "setting": "AZ3146 + Olaparib; first compound 0.8 µM", "result": 1.12},
      {"measurement": "relative viability", "setting": "AZ3146 + Olaparib; first compound 2.53 µM", "result": 1.04},
      {"measurement": "relative viability", "setting": "AZ3146 + Olaparib; first compound 8 µM", "result": 1.06},
      {"measurement": "relative viability", "setting": "AZ3146 + Pemetrexed; first compound 0.08 µM", "result": 0.567},
      {"measurement": "relative viability", "setting": "AZ3146 + Pemetrexed; first compound 0.253 µM", "result": 0.542},
      {"measurement": "relative viability", "setting": "AZ3146 + Pemetrexed; first compound 0.8 µM", "result": 0.539},
      {"measurement": "relative viability", "setting": "AZ3146 + Pemetrexed; first compound 2.53 µM", "result": 0.619},
      {"measurement": "relative viability", "setting": "AZ3146 + Pemetrexed; first compound 8 µM", "result": 0.561},
      {"measurement": "relative viability", "setting": "GSK-J4 + Linsitinib; first compound 0.5 µM", "result": 0.694},
      {"measurement": "relative viability", "setting": "GSK-J4 + Linsitinib; first compound 1.581 µM", "result": 0.752},
      {"measurement": "relative viability", "setting": "GSK-J4 + Linsitinib; first compound 5 µM", "result": 0.814},
      {"measurement": "relative viability", "setting": "GSK-J4 + Linsitinib; first compound 15.81 µM", "result": 0.779},
      {"measurement": "relative viability", "setting": "GSK-J4 + Linsitinib; first compound 50 µM", "result": 0.785}
    ]},
    {"cell line": "NCI-H2087", "values": [
      {"measurement": "relative viability", "setting": "AZ3146 + Crizotinib; first compound 0.08 µM", "result": 0.906},
      {"measurement": "relative viability", "setting": "AZ3146 + Crizotinib; first compound 0.253 µM", "result": 0.875},
      {"measurement": "relative viability", "setting": "AZ3146 + Crizotinib; first compound 0.8 µM", "result": 0.843},
      {"measurement": "relative viability", "setting": "AZ3146 + Crizotinib; first compound 2.53 µM", "result": 0.795},
      {"measurement": "relative viability", "setting": "AZ3146 + Crizotinib; first compound 8 µM", "result": 0.376},
      {"measurement": "relative viability", "setting": "AZ3146 + Olaparib; first compound 0.08 µM", "result": 0.563},
      {"measurement": "relative viability", "setting": "AZ3146 + Olaparib; first compound 0.253 µM", "result": 0.654},
      {"measurement": "relative viability", "setting": "AZ3146 + Olaparib; first compound 0.8 µM", "result": 0.649},
      {"measurement": "relative viability", "setting": "AZ3146 + Olaparib; first compound 2.53 µM", "result": 0.637},
      {"measurement": "relative viability", "setting": "AZ3146 + Olaparib; first compound 8 µM", "result": 0.419},
      {"measurement": "relative viability", "setting": "AZ3146 + Pemetrexed; first compound 0.08 µM", "result": 0.648},
      {"measurement": "relative viability", "setting": "AZ3146 + Pemetrexed; first compound 0.253 µM", "result": 0.683},
      {"measurement": "relative viability", "setting": "AZ3146 + Pemetrexed; first compound 0.8 µM", "result": 0.684},
      {"measurement": "relative viability", "setting": "AZ3146 + Pemetrexed; first compound 2.53 µM", "result": 0.67},
      {"measurement": "relative viability", "setting": "AZ3146 + Pemetrexed; first compound 8 µM", "result": 0.661},
      {"measurement": "relative viability", "setting": "GSK-J4 + Linsitinib; first compound 0.5 µM", "result": 0.791},
      {"measurement": "relative viability", "setting": "GSK-J4 + Linsitinib; first compound 1.581 µM", "result": 0.94},
      {"measurement": "relative viability", "setting": "GSK-J4 + Linsitinib; first compound 15.81 µM", "result": 0.864},
      {"measurement": "relative viability", "setting": "GSK-J4 + Linsitinib; first compound 50 µM", "result": 0.641}
    ]},
    {"cell line": "COR-L23", "values": [
      {"measurement": "relative viability", "setting": "AZ3146 + Crizotinib; first compound 0.08 µM", "result": 0.506},
      {"measurement": "relative viability", "setting": "AZ3146 + Crizotinib; first compound 0.253 µM", "result": 0.649},
      {"measurement": "relative viability", "setting": "AZ3146 + Crizotinib; first compound 0.8 µM", "result": 0.622},
      {"measurement": "relative viability", "setting": "AZ3146 + Crizotinib; first compound 2.53 µM", "result": 0.502},
      {"measurement": "relative viability", "setting": "AZ3146 + Crizotinib; first compound 8 µM", "result": 0.407},
      {"measurement": "relative viability", "setting": "AZ3146 + Olaparib; first compound 0.08 µM", "result": 0.28},
      {"measurement": "relative viability", "setting": "AZ3146 + Olaparib; first compound 0.253 µM", "result": 0.363},
      {"measurement": "relative viability", "setting": "AZ3146 + Olaparib; first compound 0.8 µM", "result": 0.353},
      {"measurement": "relative viability", "setting": "AZ3146 + Olaparib; first compound 2.53 µM", "result": 0.361},
      {"measurement": "relative viability", "setting": "AZ3146 + Olaparib; first compound 8 µM", "result": 0.324},
      {"measurement": "relative viability", "setting": "AZ3146 + Pemetrexed; first compound 0.08 µM", "result": 0.195},
      {"measurement": "relative viability", "setting": "AZ3146 + Pemetrexed; first compound 0.253 µM", "result": 0.196},
      {"measurement": "relative viability", "setting": "AZ3146 + Pemetrexed; first compound 0.8 µM", "result": 0.215},
      {"measurement": "relative viability", "setting": "AZ3146 + Pemetrexed; first compound 2.53 µM", "result": 0.208},
      {"measurement": "relative viability", "setting": "AZ3146 + Pemetrexed; first compound 8 µM", "result": 0.195},
      {"measurement": "relative viability", "setting": "GSK-J4 + Linsitinib; first compound 0.5 µM", "result": 0.909},
      {"measurement": "relative viability", "setting": "GSK-J4 + Linsitinib; first compound 1.581 µM", "result": 0.933},
      {"measurement": "relative viability", "setting": "GSK-J4 + Linsitinib; first compound 15.81 µM", "result": 0.868},
      {"measurement": "relative viability", "setting": "GSK-J4 + Linsitinib; first compound 50 µM", "result": 0.807}
    ]},
    {"cell line": "NCI-H1355", "values": [
      {"measurement": "relative viability", "setting": "AZ3146 + Crizotinib; first compound 0.08 µM", "result": 1.07},
      {"measurement": "relative viability", "setting": "AZ3146 + Crizotinib; first compound 0.253 µM", "result": 1.04},
      {"measurement": "relative viability", "setting": "AZ3146 + Crizotinib; first compound 0.8 µM", "result": 1.1},
      {"measurement": "relative viability", "setting": "AZ3146 + Crizotinib; first compound 2.53 µM", "result": 1.04},
      {"measurement": "relative viability", "setting": "AZ3146 + Crizotinib; first compound 8 µM", "result": 1.08},
      {"measurement": "relative viability", "setting": "AZ3146 + Olaparib; first compound 0.08 µM", "result": 0.72},
      {"measurement": "relative viability", "setting": "AZ3146 + Olaparib; first compound 0.253 µM", "result": 0.761},
      {"measurement": "relative viability", "setting": "AZ3146 + Olaparib; first compound 0.8 µM", "result": 0.759},
      {"measurement": "relative viability", "setting": "AZ3146 + Olaparib; first compound 2.53 µM", "result": 0.83},
      {"measurement": "relative viability", "setting": "AZ3146 + Olaparib; first compound 8 µM", "result": 0.807},
      {"measurement": "relative viability", "setting": "AZ3146 + Pemetrexed; first compound 0.08 µM", "result": 1.02},
      {"measurement": "relative viability", "setting": "AZ3146 + Pemetrexed; first compound 0.253 µM", "result": 1.02},
      {"measurement": "relative viability", "setting": "AZ3146 + Pemetrexed; first compound 0.8 µM", "result": 1.03},
      {"measurement": "relative viability", "setting": "AZ3146 + Pemetrexed; first compound 2.53 µM", "result": 1.12},
      {"measurement": "relative viability", "setting": "AZ3146 + Pemetrexed; first compound 8 µM", "result": 1.13},
      {"measurement": "relative viability", "setting": "GSK-J4 + Linsitinib; first compound 0.5 µM", "result": 0.714},
      {"measurement": "relative viability", "setting": "GSK-J4 + Linsitinib; first compound 1.581 µM", "result": 0.742},
      {"measurement": "relative viability", "setting": "GSK-J4 + Linsitinib; first compound 5 µM", "result": 0.871},
      {"measurement": "relative viability", "setting": "GSK-J4 + Linsitinib; first compound 15.81 µM", "result": 0.809},
      {"measurement": "relative viability", "setting": "GSK-J4 + Linsitinib; first compound 50 µM", "result": 0.816}
    ]}
  ]
}
